Experimental data reported in patent US7074798B2, “Xanthine derivative and DPPIV inhibitor” (Eisai Co., Ltd, priority 2002, dated 2006).
Where a name gives a salt, the structure may show the parent alone.

Experiments:
[1] = molecular target: T1, DPP-IV obtained from swine kidney (Sus scrofa, UniProt P22411); test: Determination of the inhibition action of DPPIV; assay type: biochemical; details: Gly-Pro-p-nitroanilide 0.33 mM, absorbance 405 nm
T1 construct: DPP-IV obtained from swine kidney; from tissue; host or cells: swine kidney
T1 sequence (P22411 whole entry): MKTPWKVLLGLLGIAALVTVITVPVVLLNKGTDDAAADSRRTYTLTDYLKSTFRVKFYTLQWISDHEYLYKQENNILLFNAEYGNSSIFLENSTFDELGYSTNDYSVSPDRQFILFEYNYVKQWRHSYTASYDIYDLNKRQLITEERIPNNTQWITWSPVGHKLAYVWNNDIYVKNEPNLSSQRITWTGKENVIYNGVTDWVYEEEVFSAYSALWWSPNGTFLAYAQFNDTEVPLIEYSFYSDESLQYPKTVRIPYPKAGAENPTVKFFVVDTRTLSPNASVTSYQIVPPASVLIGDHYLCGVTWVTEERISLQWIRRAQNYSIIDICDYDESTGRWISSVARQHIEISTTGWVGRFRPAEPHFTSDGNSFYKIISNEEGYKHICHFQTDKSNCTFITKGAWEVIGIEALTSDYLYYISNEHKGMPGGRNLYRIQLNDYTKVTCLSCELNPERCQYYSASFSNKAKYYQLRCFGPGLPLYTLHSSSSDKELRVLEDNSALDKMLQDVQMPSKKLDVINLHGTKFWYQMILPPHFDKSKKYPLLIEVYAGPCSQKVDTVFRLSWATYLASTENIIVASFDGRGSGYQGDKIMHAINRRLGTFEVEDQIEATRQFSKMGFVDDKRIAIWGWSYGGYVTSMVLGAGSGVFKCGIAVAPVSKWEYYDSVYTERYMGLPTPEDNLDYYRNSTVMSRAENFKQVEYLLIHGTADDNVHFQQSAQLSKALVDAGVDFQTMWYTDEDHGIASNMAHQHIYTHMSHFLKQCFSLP
Experimental: DPP-IV obtained from swine kidney was dissolved in reaction buffer (50 mM Tris-HCl pH 7.4, 0.1% BSA) at a concentration of 10 mU/mL, and 110 μl of the solution was added. Then, medicament (15 μl) was added thereto, and the mixture was incubated at room temperature for 20 minutes. Gly-Pro-p-nitroanilide (25 μl, final concentration: 0.33 mM) dissolved to 2 mM was added to the mixture to start enzymatic reaction. The reaction time was 20 minutes, and 1N phosphoric acid solution (25 μl) was added to the mixture to quench the reaction.

[2] = tested on: male C57BL/6N mouse; test: Effect on glucose tolerance of normal mouse (oral glucose loading); assay type: in vivo; details: 2 h, 30 min before glucose 2 g/kg, AUC0-120, 0.5% MC = 100%, NVP DPP728 10 mg/kg = 0%, lower = better, read-out: Improvement degree of glucose tolerance; for response vs control in vivo at 3 mg/kg: 3 mg/kg oral
Experimental: Effect on Glucose Tolerance of Normal Mouse
male C57BL/6N mouse (purchased from CHARLES RIVER JAPAN, INC.)
A suspension of the test compound and NVP DPP728 or 0.5% MC solution (solvent control group) were orally administered at a dose of 10 mL/kg, and after 30 minutes, glucose solution was orally administered at a dose of 10 mL/kg. Glucose was orally administered at a dose of 2 g/kg.
Immediately before the administration of the test substance and NVP DPP728, immediately before the administration of the glucose solution and at 30 minutes, 60 minutes, and 120 minutes after the administration, a tail vein of the mouse was injured to slightly bleed by a razor under no anesthesia. 10 μl of blood was collected and was immediately mixed with 0.6M perchloric acid (140 μl). Glucose in the supernatant obtained by centrifugation (1500 g, 10 minutes, 4° C., refrigerated centrifuge GS-6KR, Beckman Instruments, Inc.) was measured using Glucose CII-Test Wako (Wako Pure Chemical Industries, Ltd.).
Area under the curve of blood glucose level-time (AUC0-120; Area Under the Curve) from the time of administration of glucose to 120 minutes after administration was calculated for respective administration groups, i.e., 0.5% MC solution, NVP DPP728, and the test compounds. Taking the AUC0-120 of the 0.5% MC solution administration group as 100% and the AUC0-120 of NVP DPP728 (10 mg/kg) administration group as 0%, the improvement degree of the glucose tolerance of a test compound was calculated using the following formula: Improvement degree of the glucose tolerance (%)=(AUC0-120 of the test compound−AUC0-120 of the NVP DPP728 (10 mg/kg) administration group)/(AUC0-120 of the 0.5% MC solution administration group−AUC0-120 of the NVP DPP728 (10 mg/kg) administration group)×100. • The lower the % value, the greater the improvement degree of the glucose tolerance will be.

| IC50 [1] [nM] | SMILES | response vs control in vivo at 3 mg/kg [2] [%] | response vs control in vivo at 1 mg/kg ([2]; 1 mg/kg oral) [%] |
| --- | --- | --- | --- |
| 24.1 | Cn1c(=O)n(CCc2ccccc2)c(=O)c2c1nc(N1CCCNCC1)n2Cc1ccccc1 [Control compound 1, reference compound] | 49.2 |  |
|  | CC#CCn1c(N2CCNCC2)nc2c1c(=O)n(CC(=O)c1ccccc1)c(=O)n2CCOCC [Example 323, 7-(2-Butynyl)-3-(2-ethoxyethyl)-1-(2-oxo-2-phenylethyl-8-(piperazin-1-yl)-3,7-dihydropurine-2,6-dione trifluoroacetate] | 0.5 |  |
|  | CC#CCn1c(N2CCNCC2)nc2c1c(=O)n(CCc1ccccc1)c(=O)n2CC(=O)OCC [Example 326, [7-(2-Butynyl)-2,6-dioxo-1-(2-phenethyl)-8-(piperazin-1-yl)-1,2,6,7-tetrahydropurin-3-yl]acetic acid ethyl ester hydrochloride] | -30.6 | -19.2 |
